In patent US20250074920A1, “MACROCYCLIC COMPOUNDS AND USE AS KINASE INHIBITORS” (BLOSSOMHILL THERAPEUTICS, INC., priority 2022, published 2025):

How the values were obtained:
Assay in all cases: KINOMEscan kinase binding assay
Conditions in all cases: at 1 μM
EGFR(L858R) = tested on: EGFR(L858R)
How it was run: (§1)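 qPCR read-out of kinase retained on ligand-coated streptavidin beads. Binding buffer: 20% SeaBlock, 0.17×PBS, 0.05% Tween 20, 6 mM DTT; 1 h RT with shaking. % Ctrl = (test − positive control)/(negative control − positive control)×100; lower values mean stronger binding.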

VEGFR2 = tested on: VEGFR2
How it was run: (§2)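 KINOMEscan competition assay. T7-phage kinase fusions (E. coli lysates) or DNA-tagged HEK-293 kinases; immobilized biotinylated ligand on beads; 1 h RT incubation; qPCR detection of bound kinase. Output: % Ctrl or Kd.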

BTK = tested on: BTK
How it was run: as §2

TYRO3 = tested on: TYRO3
How it was run: as §2

INSRR = tested on: INSRR
How it was run: as §2

CTK = tested on: CTK
How it was run: as §2

FLT3(D835V) = tested on: FLT3(D835V)
How it was run: as §2

ALK = tested on: ALK
How it was run: as §2

ERBB2 = tested on: ERBB2
How it was run: as §2

EPHB3 = tested on: EPHB3
How it was run: as §2

KIT = tested on: KIT
How it was run: as §2

LYN = tested on: LYN
How it was run: as §2

BLK = tested on: BLK
How it was run: as §2

[1] = tested on: EGFR(L747-S752del, P753S)
How it was run: as §2

ERBB4 = tested on: ERBB4
How it was run: as §2

ABL1-nonphosphorylated = tested on: ABL1-nonphosphorylated
How it was run: as §2

[2] = tested on: ABL1(M351T)-phosphorylated
How it was run: as §2

KIT(D816V) = tested on: KIT(D816V)
How it was run: as §2

MET(Y1235D) = tested on: MET(Y1235D)
How it was run: as §2

FGFR3(G697C) = tested on: FGFR3(G697C)
How it was run: as §2

RET(V804L) = tested on: RET(V804L)
How it was run: as §2

FLT4 = tested on: FLT4
How it was run: as §2

EPHA6 = tested on: EPHA6
How it was run: as §1

EPHA1 = tested on: EPHA1
How it was run: as §1

BRK = tested on: BRK
How it was run: as §2

EPHA5 = tested on: EPHA5
How it was run: as §1

TIE2 = tested on: TIE2
How it was run: as §2

KIT(V559D) = tested on: KIT(V559D)
How it was run: as §2

EPHA8 = tested on: EPHA8
How it was run: as §2

MST1R = tested on: MST1R
How it was run: as §2

LTK = tested on: LTK
How it was run: as §2

KIT(L576P) = tested on: KIT(L576P)
How it was run: as §2

EGFR(E746-A750del) = tested on: EGFR(E746-A750del)
How it was run: as §2

CSK = tested on: CSK
How it was run: as §2

TEC = tested on: TEC
How it was run: as §2

[3] = tested on: ABL1(E255K)-phosphorylated
How it was run: as §2

EPHA7 = tested on: EPHA7
How it was run: as §1

TRKC = tested on: TRKC
How it was run: as §2

EGFR(L861Q) = tested on: EGFR(L861Q)
How it was run: as §1

FGR = tested on: FGR
How it was run: as §2

TRKB = tested on: TRKB
How it was run: as §2

SRC = tested on: SRC
How it was run: as §2

Cc1cc2c([nH]1)/C=C1\C(=O)Nc3ccc(cc31)-c1c(nn(C)c1C)OCCCN(C)C2=O [Cpd. 1, [3a(4)Z]-6,9,15,16-tetramethyl-9,10,11,12-tetrahydro-15H-1,17-(ethanediylidene)pyrazolo[4,3-n]dipyrrolo[3,2-g:3′,4′-j][1,5]oxazacyclopentadecine-3,8(2H,5H)-dione]
% Ctrl (EGFR(L858R)): 100%
% Ctrl (VEGFR2): 93%
% Ctrl (BTK): 94%
% Ctrl (TYRO3): 100%
% Ctrl (INSRR): 94%
% Ctrl (CTK): 58%
% Ctrl (FLT3(D835V)): 61%
% Ctrl (ALK): 87%
% Ctrl (ERBB2): 98%
% Ctrl (EPHB3): 99%
% Ctrl (KIT): 91%
% Ctrl (LYN): 100%
% Ctrl (BLK): 87%
% Ctrl [1]: 100%
% Ctrl (ERBB4): 95%
% Ctrl (ABL1-nonphosphorylated): 87%
% Ctrl [2]: 100%
% Ctrl (KIT(D816V)): 97%
% Ctrl (MET(Y1235D)): 98%
% Ctrl (FGFR3(G697C)): 100%
% Ctrl (RET(V804L)): 82%
% Ctrl (FLT4): 94%
% Ctrl (EPHA6): 94%
% Ctrl (EPHA1): 100%
% Ctrl (BRK): 92%
% Ctrl (EPHA5): 93%
% Ctrl (TIE2): 95%
% Ctrl (KIT(V559D)): 91%
% Ctrl (EPHA8): 100%
% Ctrl (MST1R): 100%
% Ctrl (LTK): 74%
% Ctrl (KIT(L576P)): 88%
% Ctrl (EGFR(E746-A750del)): 95%
% Ctrl (CSK): 97%
% Ctrl (TEC): 91%
% Ctrl [3]: 92%
% Ctrl (EPHA7): 91%
% Ctrl (TRKC): 94%
% Ctrl (EGFR(L861Q)): 82%
% Ctrl (FGR): 91%
% Ctrl (TRKB): 87%
% Ctrl (SRC): 89%

Cc1cc2c([nH]1)/C=C1\C(=O)Nc3ccc(cc31)-c1c(nn(C)c1C)COCCN(C)C2=O [Cpd. 2, [3a(4)Z]-6,9,15,16-tetramethyl-10,11,13,15-tetrahydro-2H-1,17-(ethanediylidene)pyrazolo[4,3-m]dipyrrolo[3,2-f:3′,4′-i][1,4]oxazacyclopentadecine-3,8(5H,9H)-dione]
% Ctrl (EGFR(L858R)): 78%
% Ctrl (VEGFR2): 48%
% Ctrl (BTK): 100%
% Ctrl (TYRO3): 100%
% Ctrl (INSRR): 100%
% Ctrl (CTK): 93%
% Ctrl (FLT3(D835V)): 7.9%
% Ctrl (ALK): 100%
% Ctrl (ERBB2): 100%
% Ctrl (EPHB3): 100%
% Ctrl (KIT): 100%
% Ctrl (LYN): 74%
% Ctrl (BLK): 98%
% Ctrl [1]: 100%
% Ctrl (ERBB4): 67%
% Ctrl (ABL1-nonphosphorylated): 55%
% Ctrl [2]: 57%
% Ctrl (KIT(D816V)): 60%
% Ctrl (MET(Y1235D)): 87%
% Ctrl (FGFR3(G697C)): 93%
% Ctrl (RET(V804L)): 80%
% Ctrl (FLT4): 19%
% Ctrl (EPHA6): 100%
% Ctrl (EPHA1): 100%
% Ctrl (BRK): 100%
% Ctrl (EPHA5): 99%
% Ctrl (TIE2): 63%
% Ctrl (KIT(V559D)): 98%
% Ctrl (EPHA8): 92%
% Ctrl (MST1R): 100%
% Ctrl (LTK): 100%
% Ctrl (KIT(L576P)): 100%
% Ctrl (EGFR(E746-A750del)): 100%
% Ctrl (CSK): 100%
% Ctrl (TEC): 83%
% Ctrl [3]: 45%
% Ctrl (EPHA7): 89%
% Ctrl (TRKC): 22%
% Ctrl (EGFR(L861Q)): 62%
% Ctrl (FGR): 100%
% Ctrl (TRKB): 12%
% Ctrl (SRC): 100%

Cc1cc2c([nH]1)/C=C1\C(=O)Nc3c(Cl)cc(cc31)-c1cn(C)nc1COC[C@@H](C)NC2=O [Cpd. 3, [3a(4)Z,10R]-20-chloro-6,10,15-trimethyl-10,11,13,15-tetrahydro-2H-1,17-(ethanediylidene)pyrazolo[4,3-m]dipyrrolo[3,2-f:3′,4′-i][1,4]oxazacyclopentadecine-3,8(5H,9H)-dione]
% Ctrl (EGFR(L858R)): 96%
% Ctrl (VEGFR2): 92%
% Ctrl (BTK): 86%
% Ctrl (TYRO3): 94%
% Ctrl (INSRR): 99%
% Ctrl (CTK): 80%
% Ctrl (FLT3(D835V)): 100%
% Ctrl (ALK): 100%
% Ctrl (ERBB2): 100%
% Ctrl (EPHB3): 93%
% Ctrl (KIT): 100%
% Ctrl (LYN): 90%
% Ctrl (BLK): 92%
% Ctrl [1]: 90%
% Ctrl (ERBB4): 96%
% Ctrl (ABL1-nonphosphorylated): 92%
% Ctrl [2]: 99%
% Ctrl (KIT(D816V)): 97%
% Ctrl (MET(Y1235D)): 100%
% Ctrl (FGFR3(G697C)): 89%
% Ctrl (RET(V804L)): 98%
% Ctrl (FLT4): 100%
% Ctrl (EPHA6): 93%
% Ctrl (EPHA1): 85%
% Ctrl (BRK): 95%
% Ctrl (EPHA5): 100%
% Ctrl (TIE2): 97%
% Ctrl (KIT(V559D)): 100%
% Ctrl (EPHA8): 90%
% Ctrl (MST1R): 98%
% Ctrl (LTK): 100%
% Ctrl (KIT(L576P)): 100%
% Ctrl (EGFR(E746-A750del)): 98%
% Ctrl (CSK): 94%
% Ctrl (TEC): 96%
% Ctrl [3]: 100%
% Ctrl (EPHA7): 100%
% Ctrl (TRKC): 100%
% Ctrl (EGFR(L861Q)): 98%
% Ctrl (FGR): 98%
% Ctrl (TRKB): 100%
% Ctrl (SRC): 100%

C[C@@H]1COCc2nn(C)cc2-c2cc(Cl)c3c(c2)/C(=C/c2[nH]ccc2C(=O)N1)C(=O)N3 [Cpd. 4, [3a(4)Z,10R]-20-chloro-10,15-dimethyl-10,11,13,15-tetrahydro-2H-1,17-(ethanediylidene)pyrazolo[4,3-m]dipyrrolo[3,2-f:3′,4′-i][1,4]oxazacyclopentadecine-3,8(5H,9H)-dione]
% Ctrl (EGFR(L858R)): 95%
% Ctrl (VEGFR2): 94%
% Ctrl (BTK): 78%
% Ctrl (TYRO3): 97%
% Ctrl (INSRR): 91%
% Ctrl (CTK): 76%
% Ctrl (FLT3(D835V)): 75%
% Ctrl (ALK): 100%
% Ctrl (ERBB2): 100%
% Ctrl (EPHB3): 93%
% Ctrl (KIT): 100%
% Ctrl (LYN): 87%
% Ctrl (BLK): 100%
% Ctrl [1]: 90%
% Ctrl (ERBB4): 100%
% Ctrl (ABL1-nonphosphorylated): 84%
% Ctrl [2]: 94%
% Ctrl (KIT(D816V)): 100%
% Ctrl (MET(Y1235D)): 100%
% Ctrl (FGFR3(G697C)): 79%
% Ctrl (RET(V804L)): 95%
% Ctrl (FLT4): 100%
% Ctrl (EPHA6): 97%
% Ctrl (EPHA1): 71%
% Ctrl (BRK): 83%
% Ctrl (EPHA5): 100%
% Ctrl (TIE2): 91%
% Ctrl (KIT(V559D)): 100%
% Ctrl (EPHA8): 82%
% Ctrl (MST1R): 100%
% Ctrl (LTK): 100%
% Ctrl (KIT(L576P)): 100%
% Ctrl (EGFR(E746-A750del)): 96%
% Ctrl (CSK): 100%
% Ctrl (TEC): 99%
% Ctrl [3]: 94%
% Ctrl (EPHA7): 100%
% Ctrl (TRKC): 100%
% Ctrl (EGFR(L861Q)): 89%
% Ctrl (FGR): 100%
% Ctrl (TRKB): 100%
% Ctrl (SRC): 100%
